Experimental data from ChEMBL document CHEMBL3046283, “The simple synthesis and antimicrobial activity of novel fluoroquinolone derivatives from natural amino acid salts” (2012).
Where a name gives a salt, the structure may show the parent alone. Calls of active or inactive are those of the source. The rule behind the calls is not given here.

Legend:
Staphylococcus aureus [1] = test: Antibacterial activity against Staphylococcus aureus at 1 mg/ml after 24 hr by […]; assay type: functional; settings: for zone of inhibition at 1000 µg/mL: read-out: DIZ
Bacillus subtilis [2] = test: Antibacterial activity against Bacillus subtilis at 1 mg/ml after 24 hr by […]; assay type: functional; settings: read-out: DIZ
Bacillus subtilis [3] = test: Antibacterial activity against Bacillus subtilis at 0.1 mg/ml after 24 hr by […]; assay type: functional; settings: for zone of inhibition at 100 µg/mL: read-out: DIZ
Aspergillus fumigatus [4] = test: Antifungal activity against Aspergillus fumigatus at 0.2 mg/ml after 24 hr by […]; assay type: functional
Bacillus subtilis [5] = test: Antibacterial activity against Bacillus subtilis at 0.2 mg/ml after 24 hr by […]; assay type: functional; settings: read-out: DIZ
Candida albicans = test: Antifungal activity against Candida albicans at 0.1 to 1 mg/ml after 24 hr by […]; assay type: functional, organism-based
Staphylococcus aureus [6] = test: Antibacterial activity against Staphylococcus aureus at 0.1 mg/ml after 24 hr by […]; assay type: functional
Staphylococcus aureus [7] = test: Antibacterial activity against Staphylococcus aureus at 0.2 mg/ml after 24 hr by […]; assay type: functional
Aspergillus fumigatus [8] = test: Antifungal activity against Aspergillus fumigatus at 0.1 mg/ml after 24 hr by […]; assay type: functional, organism-based
Aspergillus fumigatus [9] = test: Antifungal activity against Aspergillus fumigatus at 1 mg/ml after 24 hr by […]; assay type: functional; settings: for zone of inhibition at 1000 µg/mL: read-out: DIZ

CCC(C)C(C(=O)O)n1cc(C(=O)O)c(=O)c2cc(F)c(N3CCN(C)CC3)c(F)c21 (stereo not given)
zone of inhibition at 1000 µg/mL (Staphylococcus aureus [1]): 0.6 mm
zone of inhibition at 1000 µg/mL (Bacillus subtilis [2]): 1.2 mm
zone of inhibition at 100 µg/mL (Bacillus subtilis [3]): 0.6 mm
diameter of the inhibition zone (DIZ) (Aspergillus fumigatus [4]): inactive
zone of inhibition at 200 µg/mL (Bacillus subtilis [5]): 1.15 mm
diameter of the inhibition zone (DIZ) (Candida albicans): inactive
diameter of the inhibition zone (DIZ) (Staphylococcus aureus [6]): inactive
diameter of the inhibition zone (DIZ) (Staphylococcus aureus [7]): inactive
diameter of the inhibition zone (DIZ) (Aspergillus fumigatus [8]): inactive
diameter of the inhibition zone (DIZ) (Aspergillus fumigatus [9]): inactive

CC(C)CC(C(=O)O)n1cc(C(=O)O)c(=O)c2cc(F)c(N3CCN(C)CC3)c(F)c21 (stereo not given)
zone of inhibition at 1000 µg/mL (Staphylococcus aureus [1]): 0.6 mm
zone of inhibition at 1000 µg/mL (Bacillus subtilis [2]): 1.15 mm
diameter of the inhibition zone (DIZ) (Bacillus subtilis [3]): inactive
diameter of the inhibition zone (DIZ) (Aspergillus fumigatus [4]): inactive
zone of inhibition at 200 µg/mL (Bacillus subtilis [5]): 0.95 mm
diameter of the inhibition zone (DIZ) (Candida albicans): inactive
diameter of the inhibition zone (DIZ) (Staphylococcus aureus [6]): inactive
diameter of the inhibition zone (DIZ) (Staphylococcus aureus [7]): inactive
diameter of the inhibition zone (DIZ) (Aspergillus fumigatus [8]): inactive
diameter of the inhibition zone (DIZ) (Aspergillus fumigatus [9]): inactive

CN1CCN(c2c(F)cc3c(=O)c(C(=O)O)cn(CC(=O)O)c3c2F)CC1
zone of inhibition at 1000 µg/mL (Staphylococcus aureus [1]): 0.7 mm
zone of inhibition at 1000 µg/mL (Bacillus subtilis [2]): 1.1 mm
zone of inhibition at 100 µg/mL (Bacillus subtilis [3]): 0.65 mm
zone of inhibition at 200 µg/mL (Aspergillus fumigatus [4]; read-out: DIZ): 0.6 mm
zone of inhibition at 200 µg/mL (Bacillus subtilis [5]): 0.9 mm
diameter of the inhibition zone (DIZ) (Candida albicans): inactive
diameter of the inhibition zone (DIZ) (Staphylococcus aureus [6]): inactive
diameter of the inhibition zone (DIZ) (Staphylococcus aureus [7]): inactive
diameter of the inhibition zone (DIZ) (Aspergillus fumigatus [8]): inactive
zone of inhibition at 1000 µg/mL (Aspergillus fumigatus [9]): 1 mm

CN1CCN(c2c(F)cc3c(=O)c(C(=O)O)cn(C(C(=O)O)c4ccccc4)c3c2F)CC1 (stereo not given)
zone of inhibition at 1000 µg/mL (Staphylococcus aureus [1]): 0.6 mm
zone of inhibition at 1000 µg/mL (Bacillus subtilis [2]): 1.05 mm
zone of inhibition at 100 µg/mL (Bacillus subtilis [3]): 0.6 mm
diameter of the inhibition zone (DIZ) (Aspergillus fumigatus [4]): inactive
zone of inhibition at 200 µg/mL (Bacillus subtilis [5]): 0.9 mm
diameter of the inhibition zone (DIZ) (Candida albicans): inactive
diameter of the inhibition zone (DIZ) (Staphylococcus aureus [6]): inactive
diameter of the inhibition zone (DIZ) (Staphylococcus aureus [7]): inactive
diameter of the inhibition zone (DIZ) (Aspergillus fumigatus [8]): inactive
zone of inhibition at 1000 µg/mL (Aspergillus fumigatus [9]): 0.6 mm

CN1CCN(c2c(F)cc3c(=O)c(C(=O)O)cn(C(Cc4ccccc4)C(=O)O)c3c2F)CC1 (stereo not given)
zone of inhibition at 1000 µg/mL (Staphylococcus aureus [1]): 0.8 mm
zone of inhibition at 1000 µg/mL (Bacillus subtilis [2]): 1.2 mm
diameter of the inhibition zone (DIZ) (Bacillus subtilis [3]): inactive
diameter of the inhibition zone (DIZ) (Aspergillus fumigatus [4]): inactive
zone of inhibition at 200 µg/mL (Bacillus subtilis [5]): 0.95 mm
diameter of the inhibition zone (DIZ) (Candida albicans): inactive
diameter of the inhibition zone (DIZ) (Staphylococcus aureus [6]): inactive
diameter of the inhibition zone (DIZ) (Staphylococcus aureus [7]): inactive
diameter of the inhibition zone (DIZ) (Aspergillus fumigatus [8]): inactive
zone of inhibition at 1000 µg/mL (Aspergillus fumigatus [9]): 0.75 mm

CC(C)C(C(=O)O)n1cc(C(=O)O)c(=O)c2cc(F)c(N3CCN(C)CC3)c(F)c21 (stereo not given)
diameter of the inhibition zone (DIZ) (Staphylococcus aureus [1]): inactive
zone of inhibition at 1000 µg/mL (Bacillus subtilis [2]): 1 mm
diameter of the inhibition zone (DIZ) (Bacillus subtilis [3]): inactive
diameter of the inhibition zone (DIZ) (Aspergillus fumigatus [4]): inactive
zone of inhibition at 200 µg/mL (Bacillus subtilis [5]): 0.7 mm
diameter of the inhibition zone (DIZ) (Candida albicans): inactive
diameter of the inhibition zone (DIZ) (Staphylococcus aureus [6]): inactive
diameter of the inhibition zone (DIZ) (Staphylococcus aureus [7]): inactive
diameter of the inhibition zone (DIZ) (Aspergillus fumigatus [8]): inactive
diameter of the inhibition zone (DIZ) (Aspergillus fumigatus [9]): inactive

C[C@H]1COc2c(N3CCN(C)CC3)c(F)cc3c(=O)c(C(=O)O)cn1c23 [LEVOFLOXACIN HYDROCHLORIDE]
zone of inhibition at 1000 µg/mL (Staphylococcus aureus [1]): 3.3 mm
zone of inhibition at 1000 µg/mL (Bacillus subtilis [2]): 4.6 mm
zone of inhibition at 100 µg/mL (Bacillus subtilis [3]): 3.6 mm
diameter of the inhibition zone (DIZ) (Aspergillus fumigatus [4]): inactive
zone of inhibition at 200 µg/mL (Bacillus subtilis [5]): 3.8 mm
diameter of the inhibition zone (DIZ) (Candida albicans): inactive
zone of inhibition at 100 µg/mL (Staphylococcus aureus [6]; read-out: DIZ): 2.6 mm
zone of inhibition at 200 µg/mL (Staphylococcus aureus [7]; read-out: DIZ): 2.9 mm
diameter of the inhibition zone (DIZ) (Aspergillus fumigatus [8]): inactive
diameter of the inhibition zone (DIZ) (Aspergillus fumigatus [9]): inactive
